US20090239858A1, “THERAPEUTIC AMIDES” (ALLERGAN, INC., priority 2008, published 2009)

System: lashes and adjacent hairs of patients
Test: Eyelash and hair growth observed in glaucoma patients treated in one eye
Format: in vivo, human
Settings: glaucoma patients treated in only one eye
Description: In the course of treating patients having glaucoma, treatment may only be appropriate in one eye. […] The lash appearance on the lids of the treated eyes would have appeared quite attractive if it represented a bilateral phenomenon. As a result of its asymmetric nature, the long lashes on one side could be construed as disturbing from a cosmetic standpoint. A systemic examination was preformed as a result of the asymmetric phenomenon. It soon became apparent that this altered appearance was not an isolated finding. […] Definite differences could be identified to varying degrees in the lashes and adjacent hairs of all patients who were taking the drug on a unilateral basis for longer than 6 months.
The changes in the lashes were apparent on gross inspection in several patients once attention was focused on the issue. In those with light colored hair and lashes, the differences were only seen easily with the aid of the high magnification and lighting capabilities of the slit lamp biomicroscope. In the course of glaucoma follow-up examination, attention is generally immediately focused on the eye itself. As a result of the high power magnification needed only one eye is seen at a time and the eye is seen at a high enough power that the lashes are not in focus. […]

`CCNC(=O)CCC/C=C\C[C@@H]1[C@@H](/C=C/[C@@H](O)CCc2ccccc2)[C@H](O)C[C@@H]1O` [bimatoprost] was tested, and the “lash appearance in treated eye versus non-treated eye” value was “longer, thicker, and fuller”.
